Patent US7579432B2, “Cyclic peptides as G-protein-coupled receptor antagonists” (Promics Pty Limited, priority 2001, dated 2009)

Legend:
[1] = system: lower limb ischemia-reperfusion (I/R); experiment: Bilateral hindlimb ischemia-reperfusion injury in rats
Procedure: Rats were subjected to 2 hours bilateral hindlimb ischemia and 4 hours reperfusion. […] (1 mg/kg) i.v., either 10 min before ischemia or 10 min prior to reperfusion, or orally (10 mg/kg) 30 min prior to ischemia. Levels of circulating creatine kinase (CK), lactate dehydrogenase (LDH), alanine and aspartate aminotransferase (ALT/AST), creatinine, blood urea nitrogen (BUN), polymorphonuclear leukocytes (PMNs) and calcium (Ca^++) and potassium (K^+) ions were determined. These biochemical indices are known to reflect tissue or organ injury following I/R events. Other parameters measured included urinary protein levels, muscle edema and myeloperoxidase (MPO) concentrations in the lung, liver and muscle along with liver homogenate TNF-α concentrations.
The study was performed in accordance with guidelines from the National Health & Medical Research Council of Australia, and the experimental protocol approved by the University of Queensland Animal Ethics Committee. Female Wistar rats weighing 250-300 g were fasted overnight before being anaesthetized with the i.p. injection of 6 mg/kg xylazine and 120 mg/kg ketamine. Anesthesia was maintained throughout the study by additional injections of ketamine. […] Bilateral hindlimb ischemia was then induced through the application of latex o-rings (marking rings; Hayes Veterinary Supplies, Brisbane, Australia) above the greater trochanter of each hind limb. Following 2 hours of ischemia, the latex rings were cut and removed and limbs allowed to reperfuse for 4 hours. Six experimental groups were used: • (a) sham-operated, • (b) ischemia-only, • (c) I/R-only, • (d) I/R+C5a antagonist (1 mg/kg, i.v.) administered 10 min prior to ischemia, • (e) I/R+C5a antagonist (10 mg/kg, p.o.) administered 30 min prior to ischemia, and • (f) I/R+C5a antagonist (1 mg/kg, i.v.) administered 10 min prior to reperfusion.
All other groups underwent 2 hours of ischemia and 4 hours of reperfusion. Sham-operated, ischemia-only and I/R groups were infused with 7% ethanol/saline 10 min prior to ischemia, instead of drug. Blood was collected throughout the study from the tail vein, and serum or plasma was stored at either 4° C. or −20° C. for later biochemical assays. Urine was collected over the last hour of the study for the determination of urinary protein levels. At the completion of the experiment, rats were euthanased, and sections of the lungs, liver and gastrocnemius muscle removed and weighed for edema, neutrophil accumulation and liver TNF-α studies.
All experimental results are expressed as means±standard error of the mean (SEM). Data analysis was performed using GraphPad Prism 3.0 software (GraphPad Software, Inc. USA). Statistical comparisons were made to sham-operated and I/R-only groups, using a one-way analysis of variance followed by a Dunnett comparison post-test analysis. Statistical significance was assessed at P<0.05.
Circulating levels of creatine kinase (CK) were measured in serum samples taken immediately after ischemia, following 1, 2 and 3 hours reperfusion, and at the completion of the study using a […] kit (Sigma, St. Louis, USA) according to the manufacturer's instructions. Serum was also taken 10 min after tourniquet release for CK measurement in I/R-only animals. A 1:5 dilution was used for samples taken after 2 hours reperfusion.

[2] = system: antigen-induced arthritis; experiment: Rat monoarticular antigen-induced arthritis; assay type: in vivo
Procedure: Female Wistar rats (150-250 g) were obtained from the Central Animal Breeding House, University of Queensland. […] Each rat received a subcutaneous injection of this suspension (0.5 mL) on days 1 and 7. On day 12-28, rats were separated into separate cages, and body weight and food and water intake monitored daily. Rats received either ordinary tap water or drinking water containing AcF-[OPdChaWR] (1). […] Rats were euthanased on day 28, and whole blood collected into an Eppendorf tube and allowed to clot on ice. Blood samples were centrifuges (11,000 rpm×3 min) and serum collected and stored at −20° C. until analysis of serum cytokines using an ELISA. Each knee capsule was lavaged with 100 μL saline, and the total cell count determined using a haemocytometer. In addition, an aliquot of the knee joint lavage fluid was dropped onto a glass slide, and allowed to air dry. Once dry, cells were stained with a differential stain (Diff Quick) and a differential cell count was performed using a 40× dry lens microscope. The remaining lavage fluids from each joint were stored at −20° C. until later analysis of intra-articular cytokine levels using an ELISA. Each knee joint was removed and the skin was split with a scalpel blade to allow fixation. Knee samples were stored in 10% buffered formalin for≧10 d. Knees were then rinsed with distilled water and placed in a saturated solution of EDTA solution for 21 d for decalcification before being embedded in paraffin wax. Knee tissue samples were prepared using standard histological techniques as described above in Example 6 and stained using an heamotoxylin and eosin stain. Histological slides were analysed in a blinded fashion. […] In no samples was there evidence of significant bone erosion. Samples of serum and synovial fluid were thawed on the day of ELISA analysis for TNFα and IL-6 levels. Concentrations were determined from a standard curve, using an ELISA as described previously in Example 6.

[3] = I/R + 1 mg/kg i.v. pre-ischemia, 4 hours reperfusion
[4] = I/R + 1 mg/kg i.v. pre-reperfusion, 4 hours reperfusion
[5] = I/R + 10 mg/kg p.o. pre-ischemia, 4 hours reperfusion
[6] = i.v. 1 mg/kg just prior to reperfusion
[7] = prior to ischemia, i.v. 1 mg/kg or orally 10 mg/kg

## CC(=O)N[C@@H](Cc1ccccc1)C(=O)N[C@H]1CCCNC(=O)[C@H](CCCNC(=N)N)NC(=O)[C@H](Cc2c[nH]c3ccccc23)NC(=O)[C@@H](CC2CCCCC2)NC(=O)[C@@H]2CCCN2C1=O [Compound 1, Ac-Phe-[Orn-Pro-dCha-Trp-Arg]]
[1]; [3]
  Plasma Creatinine: 1.07 ± 0.07 mg/dL
  Proteinuria: 36.4 ± 11.4 mg/dL
  Serum BUN: 23.6 ± 1.6 mg/dL
  Serum Ca++: 2.46 ± 0.04 mmol/L
  Serum K+: 6.13 ± 0.18 mmol/L
[1]; [4]
  Plasma Creatinine: 1.22 ± 0.05 mg/dL
  Proteinuria: 41.2 ± 11.4 mg/dL
  Serum BUN: 22.0 ± 2.2 mg/dL
  Serum Ca++: 2.45 ± 0.10 mmol/L
  Serum K+: 5.02 ± 0.32 mmol/L
[1]; [5]
  Plasma Creatinine: 1.14 ± 0.14 mg/dL
  Proteinuria: 45.8 ± 9.8 mg/dL
  Serum BUN: 21.8 ± 2.1 mg/dL
  Serum Ca++: 2.49 ± 0.04 mmol/L
  Serum K+: 5.57 ± 0.58 mmol/L
[1]; all 3 drug-treated groups
  MPO activity in hindlimb muscles, lungs and liver vs I/R-only rats: significant decreases
[1]; all 3 drug-treated groups, 4 hours reperfusion
  circulating PMN numbers vs I/R-only rats: significantly decreased
[1]; drug alone
  adverse effects of the drug alone (changes in injury markers vs sham-operated animals): no adverse effects
[1]; [6]
  circulating creatine kinase (CK) levels vs I/R-only rats: significant inhibition
  circulating lactate dehydrogenase (LDH) levels vs I/R-only rats: significant inhibition
[1]; [7]
  circulating creatine kinase (CK) levels vs I/R-only rats: significantly decreased levels
  circulating lactate dehydrogenase (LDH) levels vs I/R-only rats: significantly decreased levels
[2]; given orally on Days −2 to +14
  arthritic right knee joint swelling: inhibition
[2]; oral
  right knee joint IL-6 levels in joint lavage: inhibition
  right knee joint TNF-α levels in joint lavage: inhibition
